Test results published in patent US20230250066A1, “HERBICIDAL CINNOLINE DERIVATIVES” (SYNGENTA CROP PROTECTION AG, priority 2020, published 2023).

Key:
Assay type in all cases: in vivo
[1] = tested on: Echinochloa crus-galli (ECHCG); assay: Pre-emergence herbicidal test; details: 1000 g/ha, evaluated after 13 days
[2] = tested on: Ipomoea hederacea (IPOHE); assay: Post-emergence herbicidal test; details: 1000 g/ha unless otherwise stated, evaluated after 13 days
Summary of the method: (§1)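 Damage score (0–5; 5=81-100%, 1=10-20%, 0=0%) read 13 d after spraying. Spray: acetone/water 50:50 + 0.5% Tween 20, 1000 g/ha unless stated.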

[3] = tested on: Amaranthus retoflexus (AMARE); assay: Post-emergence herbicidal test; details: 1000 g/ha unless otherwise stated, evaluated after 13 days
Summary of the method: as §1

[4] = tested on: Abutilon theophrasti (ABUTH); assay: Post-emergence herbicidal test; details: 1000 g/ha unless otherwise stated, evaluated after 13 days
Summary of the method: as §1

Setaria faberi (SETFA) [5] = assay: Post-emergence herbicidal test; details: 1000 g/ha unless otherwise stated, evaluated after 13 days
Summary of the method: as §1

[6] = tested on: Echinochloa crus-galli (ECHCG); assay: Post-emergence herbicidal test; details: 1000 g/ha unless otherwise stated, evaluated after 13 days
Summary of the method: as §1

Zea mays (ZEAMX) [7] = assay: Post-emergence herbicidal test; details: 1000 g/ha unless otherwise stated, evaluated after 13 days
Summary of the method: as §1

Zea mays (ZEAMX) [8] = assay: Pre-emergence herbicidal test; details: 1000 g/ha, evaluated after 13 days
[9] = tested on: Ipomoea hederacea (IPOHE); assay: Pre-emergence herbicidal test; details: 1000 g/ha, evaluated after 13 days
[10] = tested on: Abutilon theophrasti (ABUTH); assay: Pre-emergence herbicidal test; details: 1000 g/ha, evaluated after 13 days
Setaria faberi (SETFA) [11] = assay: Pre-emergence herbicidal test; details: 1000 g/ha, evaluated after 13 days
[12] = tested on: Amaranthus retoflexus (AMARE); assay: Pre-emergence herbicidal test; details: 1000 g/ha, evaluated after 13 days

SMILES | percentage damage caused to the plant, five-point scale, ECHCG [1] | percentage damage caused to the plant, IPOHE (five-point scale) [2] | percentage damage caused to the plant, AMARE (five-point scale) [3] | percentage damage caused to the plant, ABUTH (five-point scale) [4] | percentage damage caused to the plant, SETFA (five-point scale) (Setaria faberi (SETFA) [5]) | percentage damage caused to the plant, ECHCG (five-point scale) [6] | percentage damage caused to the plant, ZEAMX (five-point scale) (Zea mays (ZEAMX) [7]) | percentage damage caused to the plant, five-point scale, ZEAMX (Zea mays (ZEAMX) [8]) | percentage damage caused to the plant, five-point scale, IPOHE [9] | percentage damage caused to the plant, five-point scale, ABUTH [10] | percentage damage caused to the plant, five-point scale, SETFA (Setaria faberi (SETFA) [11]) | percentage damage caused to the plant, five-point scale, AMARE [12]
CS(=O)(=O)c1cccc2c1c(=O)c(C(=O)OCCCl)nn2-c1ccc(OC(F)(F)F)cc1 [Compound P61, 2-chloroethyl 5-methylsulfonyl-4-oxo-1-[4-(trifluoromethoxy)phenyl]cinnoline-3-carboxylate] | 4 (4=61-80%) | 0 (0=0%) | 0 (0=0%) | 2 (2=21-40%) | 4 (4=61-80%) | 3 (3=41-60%) | 0 (0=0%) | 1 (1=10-20%) | 0 (0=0%) | 0 (0=0%) | 5 (5=81-100%) | 0 (0=0%)
C#CCCCOC(=O)c1nn(-c2ccc(OC(F)(F)F)cc2)c2cccc(S(C)(=O)=O)c2c1=O [Compound P62, pent-4-ynyl 5-methylsulfonyl-4-oxo-1-[4-(trifluoromethoxy)phenyl]cinnoline-3-carboxylate] | 4 (4=61-80%) | 0 (0=0%) | 0 (0=0%) | 0 (0=0%) | 4 (4=61-80%) | 3 (3=41-60%) | 1 (1=10-20%) | 0 (0=0%) | 0 (0=0%) | 0 (0=0%) | 5 (5=81-100%) | 0 (0=0%)
CS(=O)(=O)c1cccc2c1c(=O)c(C(=O)OCC1CC1)nn2-c1ccc(OC(F)(F)F)cc1 [Compound P63, cyclopropylmethyl 5-methylsulfonyl-4-oxo-1-[4-(trifluoromethoxy)phenyl]cinnoline-3-carboxylate] | 3 (3=41-60%) | 0 (0=0%) | 0 (0=0%) | 0 (0=0%) | 4 (4=61-80%) | 3 (3=41-60%) | 0 (0=0%) | 0 (0=0%) | 0 (0=0%) | 0 (0=0%) | 5 (5=81-100%) | 0 (0=0%)
C=CC(C)OC(=O)c1nn(-c2ccc(OC(F)(F)F)cc2)c2cccc(S(C)(=O)=O)c2c1=O (stereo not drawn) [Compound P64, 1-methylallyl 5-methylsulfonyl-4-oxo-1-[4-(trifluoromethoxy)phenyl]cinnoline-3-carboxylate] | 4 (4=61-80%) | 0 (0=0%) | 0 (0=0%) | 1 (1=10-20%) | 4 (4=61-80%) | 3 (3=41-60%) | 1 (1=10-20%) | 0 (0=0%) | 0 (0=0%) | 0 (0=0%) | 5 (5=81-100%) | 0 (0=0%)
CC(C)OC(=O)c1nn(-c2ccc(OC(F)(F)F)cc2)c2cccc(S(C)(=O)=O)c2c1=O [Compound P65, isopropyl 5-methylsulfonyl-4-oxo-1-[4-(trifluoromethoxy)phenyl]cinnoline-3-carboxylate] | 4 (4=61-80%) | 0 (0=0%) | 1 (1=10-20%) | 1 (1=10-20%) | 4 (4=61-80%) | 3 (3=41-60%) | 0 (0=0%) | 0 (0=0%) | 0 (0=0%) | 1 (1=10-20%) | 4 (4=61-80%) | 1 (1=10-20%)
C=C(Cl)COC(=O)c1nn(-c2ccc(OC(F)(F)F)cc2)c2cccc(S(C)(=O)=O)c2c1=O [Compound P66, 2-chloroallyl 5-methylsulfonyl-4-oxo-1-[4-(trifluoromethoxy)phenyl]cinnoline-3-carboxylate] | 4 (4=61-80%) | 0 (0=0%) | 0 (0=0%) | 1 (1=10-20%) | 4 (4=61-80%) | 4 (4=61-80%) | 1 (1=10-20%) | 1 (1=10-20%) | 1 (1=10-20%) | 0 (0=0%) | 5 (5=81-100%) | 0 (0=0%)
CS(=O)(=O)c1cccc2c1c(=O)c(C(=O)OCC(F)F)nn2-c1ccc(OC(F)(F)F)cc1 [Compound P67, 2,2-difluoroethyl 5-methylsulfonyl-4-oxo-1-[4-(trifluoromethoxy)phenyl]cinnoline-3-carboxylate] | 4 (4=61-80%) | 1 (1=10-20%) | 1 (1=10-20%) | 1 (1=10-20%) | 4 (4=61-80%) | 3 (3=41-60%) | 1 (1=10-20%) | 2 (2=21-40%) | 0 (0=0%) | 0 (0=0%) | 5 (5=81-100%) | 0 (0=0%)
